Assay results taken from patent USRE48461E1, “Modulation of androgen receptor expression” (Ionis Pharmaceuticals, Inc., priority 2012, dated 2021).
Oligonucleotides are written 5' to 3', each unit as a sugar letter and its base; * is a phosphorothioate linkage, no mark a phosphodiester; rarer units and linkages stand in square brackets, end groups in braces. Plain capitals give the bases only. e = 2'-O-(2-methoxyethyl) (MOE); k = constrained ethyl (cEt); [5mC] = 5-methylcytosine; d = 2'-deoxy (DNA)

Legend:
[1] = test system: AR mRNA; assay: Antisense inhibition of human AR in HuVEC cells, single concentration (electroporation, qRT-PCR RTS3559); type: cell-based
Summary of the method: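 HuVEC cells electroporated with antisense oligonucleotides at a single concentration. AR mRNA quantified by qRT-PCR using human primer-probe set RTS3559 and normalised to total RNA content by RIBOGREEN.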

[2] = test system: AR mRNA; assay: Dose-dependent antisense inhibition of human AR in HuVEC cells (electroporation, qRT-PCR RTS3559, IC50); type: cell-based; settings: HuVEC
Summary of the method: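 HuVEC cells dosed with antisense oligonucleotides by electroporation and treated approximately 16 hours. AR mRNA quantified by real-time qPCR with primer probe set RTS3559 and normalised to total RNA by RIBOGREEN; IC50 from dose-response.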

[3] = 500 nM ASO, electroporation, ~24 h, Table 2
[4] = Table 32, electroporation, approximately 16 hours
[5] = Table 29, electroporation, approximately 16 hours

For “549457 (kT*kT*kG*dA*dT*dT*dT*dA*dA*dT*dG*dG*dT*kT*kG*k[5mC]) [compound 549457]”, the “% inhibition” value ([1]; 250 nM ASO, ~24 h, Table 7) was 67%, the “% inhibition” value [1, 3] was 98% and the “% inhibition” value ([1]; 500 nM ASO, ~24 h, Table 5) was 98%. For the same substance, the “percent inhibition of AR” value ([2]; 31.25 nM, ~16 h, Table 6) was 40%, the “percent inhibition of AR” value ([2]; 31.25 nM, ~16 h, Table 8) was 34% and the “percent inhibition of AR” value ([2]; 55.6 nM, ~16 h, Table 4) was 70%. For the same substance, the “percent inhibition of AR” value ([2]; 62.5 nM, ~16 h, Table 6) was 57%, the “percent inhibition of AR” value ([2]; 62.5 nM, ~16 h, Table 8) was 44% and the “percent inhibition of AR” value ([2]; 125.0 nM, ~16 h, Table 6) was 78%. For the same substance, the “percent inhibition of AR” value ([2]; 125.0 nM, ~16 h, Table 8) was 75%, the “percent inhibition of AR” value ([2]; 166.7 nM, ~16 h, Table 4) was 95% and the “percent inhibition of AR” value ([2]; 500.0 nM, ~16 h, Table 4) was 99%. The “percent inhibition of AR” value ([2]; 500.0 nM, ~16 h, Table 6) was 96%, the “percent inhibition of AR” value ([2]; 500.0 nM, ~16 h, Table 8) was 93% and the “percent inhibition of AR” value ([2]; 1000.0 nM, ~16 h, Table 6) was 96%. For the same substance, the “percent inhibition of AR” value ([2]; 1000.0 nM, ~16 h, Table 8) was 96%, the “percent inhibition of AR” value ([2]; 1500.0 nM, ~16 h, Table 4) was 99% and the IC50 ([2]; ~16 h, Table 4) was 18 nM. It also gave an IC50 ([2]; ~16 h, Table 6) of 30 nM and an IC50 ([2]; ~16 h, Table 8) of 60 nM.

For “583787 (antisense kG*kG*kT*dG*d[5mC]*dT*dG*dG*d[5mC]*d[5mC]*dT*d[5mC]*dG*k[5mC]*kT*k[5mC]) [compound 583787]”, the “% inhibition” value ([1]; Table 19, 500 nM oligonucleotide, electroporation, approximately 24 hours, relative to untreated control) was 37%, the “percent inhibition of AR, 46.9 nM” value [2, 4] was 15% and the “percent inhibition of AR, 187.5 nM” value [2, 4] was 31%. The “percent inhibition of AR, 750.0 nM” value [2, 4] was 66%, the “percent inhibition of AR, 3000.0 nM” value [2, 4] was 74% and the IC50 [2, 4] was 430 nM.

In the case of “549414 (kG*kT*kT*d[5mC]*dA*dT*dT*d[5mC]*dG*dA*dA*dG*dT*kT*k[5mC]*kA) [compound 549414]”, the “% inhibition” value [1, 3] is reported as 81%, the “percent inhibition of AR” value ([2]; 55.6 nM, ~16 h, Table 4) is reported as 21% and the “percent inhibition of AR” value ([2]; 166.7 nM, ~16 h, Table 4) is reported as 35%. For the same substance, the “percent inhibition of AR” value ([2]; 500.0 nM, ~16 h, Table 4) was 53%, the “percent inhibition of AR” value ([2]; 1500.0 nM, ~16 h, Table 4) was 76% and the IC50 ([2]; ~16 h, Table 4) was 366 nM.

With “583556 (antisense kA*kA*k[5mC]*dT*dT*d[5mC]*dA*d[5mC]*d[5mC]*dG*dA*dA*dG*kA*kG*kG) [compound 583556]” the “% inhibition” value ([1]; 500 nM ASO, ~24 h, Table 16) was 43%, the “percent inhibition of AR, 46.9 nM” value [2, 5] was 19% and the “percent inhibition of AR, 187.5 nM” value [2, 5] was 47%. For the same substance, the “percent inhibition of AR, 750.0 nM” value [2, 5] was 68%, the “percent inhibition of AR, 3000.0 nM” value [2, 5] was 66% and the IC50 [2, 5] was 340 nM.

In the case of “549374 (kG*k[5mC]*kG*d[5mC]*dT*dG*d[5mC]*d[5mC]*dG*dT*dA*dG*dT*k[5mC]*k[5mC]*kA; antisense) [compound 549374]”, the “% inhibition” value ([1]; 500 nM ASO, electroporation, ~24 h, Table 1) is reported as 93%, the “percent inhibition of AR” value ([2]; 55.6 nM, ~16 h, Table 3) is reported as 40% and the “percent inhibition of AR” value ([2]; 166.7 nM, ~16 h, Table 3) is reported as 59%. The “percent inhibition of AR” value ([2]; 500.0 nM, ~16 h, Table 3) was 83%, the “percent inhibition of AR” value ([2]; 1500.0 nM, ~16 h, Table 3) was 92% and the IC50 ([2]; ~16 h, Table 3) was 108 nM.

With “560132 (antisense kG*kT*kT*dG*dA*dT*dT*dT*dA*dA*dT*dG*kG*kT*kT*eG) [compound 560132]” the “% inhibition” value ([1]; 1,000 nM ASO, ~24 h, Table 13) was 58%, the “percent inhibition of AR” value ([2]; 31.25 nM, ~16 h, Table 14) was 8% and the “percent inhibition of AR” value ([2]; 62.5 nM, ~16 h, Table 14) was 19%. For the same substance, the “percent inhibition of AR” value ([2]; 125.0 nM, ~16 h, Table 14) was 21%, the “percent inhibition of AR” value ([2]; 500.0 nM, ~16 h, Table 14) was 65% and the “percent inhibition of AR” value ([2]; 1000.0 nM, ~16 h, Table 14) was 85%. It also gave an IC50 ([2]; ~16 h, Table 14) of 252 nM.

In the case of “583638 (antisense kT*kG*kA*dT*d[5mC]*dT*d[5mC]*dT*dG*dG*d[5mC]*dT*d[5mC]*k[5mC]*kG*k[5mC]) [compound 583638]”, the “% inhibition” value ([1]; 500 nM ASO, ~24 h, Table 17) is reported as 51%, the “percent inhibition of AR, 46.9 nM” value [2, 5] is reported as 33% and the “percent inhibition of AR, 187.5 nM” value [2, 5] is reported as 64%. For the same substance, the “percent inhibition of AR, 750.0 nM” value [2, 5] was 79%, the “percent inhibition of AR, 3000.0 nM” value [2, 5] was 85% and the IC50 [2, 5] was 110 nM.

“560133 (antisense kA*kT*kG*dG*dT*dT*dG*dA*dT*dT*dT*dA*kA*kT*kG*eG) [compound 560133]” was tested, and the “% inhibition” value ([1]; 1,000 nM ASO, ~24 h, Table 13) was 53%, the “percent inhibition of AR” value ([2]; 31.25 nM, ~16 h, Table 14) was 17% and the “percent inhibition of AR” value ([2]; 62.5 nM, ~16 h, Table 14) was 15%. For the same substance, the “percent inhibition of AR” value ([2]; 125.0 nM, ~16 h, Table 14) was 24%, the “percent inhibition of AR” value ([2]; 500.0 nM, ~16 h, Table 14) was 58% and the “percent inhibition of AR” value ([2]; 1000.0 nM, ~16 h, Table 14) was 79%. For the same substance, the IC50 ([2]; ~16 h, Table 14) was 336 nM.
